Source: publication PMC1073692, “An Unbiased Cell Morphology–Based Screen for New, Biologically Active Small Molecules” (PLoS Biology, 2005)
Values after ≈ are worked out from the molar mass of the structure shown. Values joined by “and” are separate entries in the source; they are usually repeats but may differ in a detail not shown here. Equal values may be shown once. “Also recorded” adds a separate entry of the source. Read-outs that look alike come from different tables or passages of the source.

What was measured:
[1] = test system: A549, DU145, HUVEC, SF268 and SKOV3 cells; assay: Cytometrix cell morphology-based screen; design: species or system human; details: for Cytometrix phenotype (PCA trajectory): 6 nM to 40 μM; for EC50: Homo sapiens, read-out: Approximate EC50 (distance in PCA space from DMSO controls); for Potency in Cytometrix relative to parent compound (fold lower): linker analog vs parent, data not shown
Procedure: SKOV3 (ovarian epithelial cancer), A549 (lung epithelial cancer), and SF268 (central nervous system epithelial cancer) were chosen for their broad genetic diversity and obtained from the National Institutes of Health. These human cells were grown and maintained in RMPI medium (Mediatech, Herndon, Virginia, United States) with 5% fetal calf serum (FBS, HyClone, Logan, Utah, United States). DU145 (prostate epithelial cancer) cells ( ATTC, Manassas, Virginia, United States) were maintained in MEM with 5% FBS. HUVEC cells (VEC Technologies, Rensselaer, New York, United States) were maintained in MCDB131 medium (VEC Technologies) with 10% FBS. For the assays 1,000–1,800 trypsinized (Mediatech) cells per well (depending on cell type) were plated in 384-well plates (Corning Costar, Acton, Massachusetts, United States) using a Multidrop (Thermo Labsystems, Beverly, Massachusetts, United States) and incubated for 24 h, the approximate doubling time. Six cell plates were made for each cell line.
Compound stocks were maintained in DMSO. Compound information was stored in ActivityBase (ID Business Solutions, Guildford, United Kingdom). Compounds were serially diluted in 384-well drug plates to achieve eight concentrations diluting 3× in DMSO between wells using a Multimek (Beckman Coulter, Fullerton, California, United States). Wells were reserved on every drug plate for negative and positive controls. Negative-control wells contained DMSO only and the positive-control wells received a titration of paclitaxel, a tubulin stabilizer (Sigma-Aldrich-Fluka, St. Louis, Missouri, United States). […] Small molecules were tested at 40 μM on cells based on the logic that cellular effects on cells at […] concentration are most likely nonspecific and that we would most likely get a full-dose response after eight 3-fold dilutions (6 nM to 40 μM final concentrations).
Compounds were added to cell plates from drug plates. Compound mixed with medium was added to the cells to achieve a 0.4% DMSO concentration on prepared cell plates using a PlateTrak (CCS Packard, Torrance, California, United States). Treated cells were incubated for another 24 h, the compound exposure time.
Cells were stained for visualization of the nuclei, Golgi apparatus, and microtubules. Cells were fixed with 4% formaldehyde (Polysciences, Warrington, Pennsylvania, United States) for 1 h; washed in TBS (Teknova, Half Moon Bay, California, United States); blocked in 0.01% Triton X-100 (ICN Biomedicals, Irvine, California, United States) and 1% BSA in TBS (Teknova) and then left to incubate for 1 h; stained with 0.01% Triton X-100, 0.1% BSA, 5 μg/ml Hoechst 33342 (Molecular Probes, Eugene, Oregon, United States), 5 μg/ml FITC-Lectin Lens Culinaris (Sigma-Aldrich-Fluka), and 3 μg/ml Rhodamine Red–labeled monoclonal antibody DM1α (courtesy of Tim Stearns) for 1 h; and then washed in TBS. All of these steps were performed with a PlateTrak using an ELx405 microplate washer (Bio-Tek Instruments, Winooski, Vermont, United States). This was done in triplicate for each cell line.
Cells were imaged on an inverted Axiovert 100M epifluorescent microscope (Carl Zeiss, Oberkochen, Germany) with a 5× objective and a Xenon lamp (Sutter Instruments, Novato, California, United States). A 5× magnification was chosen (rather than 40×) primarily as a function of the need to acquire a large number of individual cells in order to gather statistically relevant data on relatively rare subpopulations. The number of cells in a randomly acquired 40× image is not sufficient to make meaningful statistical measurements across many cells. Metamorph (Universal Imaging, Downingtown, Pennsylvania, United States) was used to control the motorized x, y, z stage (Prior Scientific, Rockland, Massachusetts, United States) that moved the plate to each well, autofocused, and took three successive fluorescent images with an Orca 100 camera (Hamamatsu, Hamamatsu City, Japan). […]

[2] = target: T1, protein kinase B (Homo sapiens, UniProt P31749); assay: Kinase disk assay (32P transfer to peptide), PKB; type: biochemical; details: 25 min, read-out: Relative activity @ 1 µM inhibitor PKB
T1 construct: purchased Upstate Cell Signaling Specialties
T1 sequence (P31749 whole entry, species assumed): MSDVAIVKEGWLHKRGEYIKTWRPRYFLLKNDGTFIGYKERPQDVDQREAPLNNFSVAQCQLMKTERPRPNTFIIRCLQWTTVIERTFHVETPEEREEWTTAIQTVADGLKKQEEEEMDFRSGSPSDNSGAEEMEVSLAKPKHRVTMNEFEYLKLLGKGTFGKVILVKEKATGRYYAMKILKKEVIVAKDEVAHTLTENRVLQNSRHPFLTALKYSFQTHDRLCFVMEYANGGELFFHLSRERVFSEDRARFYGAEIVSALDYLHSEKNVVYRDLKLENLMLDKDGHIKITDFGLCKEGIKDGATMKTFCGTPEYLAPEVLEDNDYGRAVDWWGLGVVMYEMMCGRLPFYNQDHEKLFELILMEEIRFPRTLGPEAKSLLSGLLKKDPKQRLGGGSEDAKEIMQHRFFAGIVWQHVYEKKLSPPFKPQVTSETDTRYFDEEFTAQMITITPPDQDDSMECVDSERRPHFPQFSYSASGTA
Procedure: (§1) Fyn and p38 kinases were expressed in bacteria and purified as previously described. Protein kinase A and Protein kinase B were obtained commercially (Upstate Cell Signaling Specialties Charlottesville, Virginia, United States). […] Reaction mixtures (27 μl) were spotted onto a phosphocellulose disk and washed with 0.5% H3PO4. The transfer of ^32P was measured by standard scintillation counting. […] When the IC50 value fell between two measured concentrations, it was calculated based on the assumption of an inversely proportional relationship between inhibitor concentration and counts per minute between the two data points.
(§2) IC50 values against Fyn and p38 are given (left), and percentage activity of PKA and PKB in presence of the inhibitors are given (right). Kinase activity was determined using a standardized disk assay based on the P^32 transfer to a synthetic peptide (See Materials and Methods). […] Peptide subrate sequences for each kinase are shown below:
bzRPRTSSF (100 µM) was used as the susbtrate for PKB.

[3] = target: T2, human CBR1 (Homo sapiens, UniProt P16152); assay: CBR1 assay (NADPH-dependent reduction of menadione, spectrophotometric)
T2 sequence (P16152 1-277): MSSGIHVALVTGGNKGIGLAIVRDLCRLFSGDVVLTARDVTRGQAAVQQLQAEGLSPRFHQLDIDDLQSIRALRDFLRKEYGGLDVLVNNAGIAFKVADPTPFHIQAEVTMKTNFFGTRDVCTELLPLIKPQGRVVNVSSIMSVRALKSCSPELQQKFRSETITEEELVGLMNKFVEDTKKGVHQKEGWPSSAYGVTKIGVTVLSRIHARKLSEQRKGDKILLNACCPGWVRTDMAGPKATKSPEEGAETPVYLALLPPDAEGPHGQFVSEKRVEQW
Procedure: CBR1 activity was determined spectrophotometrically at 25 °C. The standard assay mixture consisted of 50 mM sodium phosphate (pH 6.8), 200 μM NADPH, and 200 μM menadione in a total volume of 1 ml. Compounds were dissolved in DMSO as 100× stock solutions. Reactions were initiated by the addition of enzyme, and initial rates were determined by monitoring the disappearance of NADPH at 340 nM. Controls without substrates or enzyme were routinely included.

[4] = Solubility limit in the CBR1 assay; type: physicochemical
[5] = target: T3, Fyn (Homo sapiens, UniProt P06241); assay: Kinase disk assay (32P transfer to peptide), Fyn; type: biochemical
T3 construct: made in house; host or cells: bacteria
T3 sequence (P06241 whole entry, species assumed): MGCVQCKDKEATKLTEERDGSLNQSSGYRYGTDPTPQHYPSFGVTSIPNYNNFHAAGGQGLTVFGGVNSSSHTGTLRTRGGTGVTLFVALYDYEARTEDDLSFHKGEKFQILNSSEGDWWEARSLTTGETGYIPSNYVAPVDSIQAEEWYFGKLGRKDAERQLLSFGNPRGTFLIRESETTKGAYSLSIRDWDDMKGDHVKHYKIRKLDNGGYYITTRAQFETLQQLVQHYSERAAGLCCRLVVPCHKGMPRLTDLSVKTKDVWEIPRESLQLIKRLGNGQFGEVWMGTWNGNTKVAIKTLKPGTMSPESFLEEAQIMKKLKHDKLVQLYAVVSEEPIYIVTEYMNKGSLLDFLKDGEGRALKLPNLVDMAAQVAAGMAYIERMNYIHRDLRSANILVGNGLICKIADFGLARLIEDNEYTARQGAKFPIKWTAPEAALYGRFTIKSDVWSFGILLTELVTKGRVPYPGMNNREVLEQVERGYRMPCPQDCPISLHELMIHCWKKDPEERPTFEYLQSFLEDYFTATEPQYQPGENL
Procedure: as §1, §2
[…] (100 µM) was used as the substrate for Fyn.

[6] = target: T4, protein kinase A (Homo sapiens, UniProt P17612); assay: Kinase disk assay (32P transfer to peptide), PKA; type: biochemical; details: remaining kinase activity
T4 construct: purchased Upstate Cell Signaling Specialties
Procedure: as §1, §2
bzRRASLG (100 µM) was used as the susbtrate for PKA.

[7] = target: T5, p38-α (Homo sapiens, UniProt Q16539); assay: Kinase disk assay (32P transfer to peptide), p38; type: biochemical; details: Table S3; […] 100 µM substrate, 11 nM [γ-32P]ATP
T5 construct: made in house; host or cells: bacteria
T5 sequence (Q16539 whole entry): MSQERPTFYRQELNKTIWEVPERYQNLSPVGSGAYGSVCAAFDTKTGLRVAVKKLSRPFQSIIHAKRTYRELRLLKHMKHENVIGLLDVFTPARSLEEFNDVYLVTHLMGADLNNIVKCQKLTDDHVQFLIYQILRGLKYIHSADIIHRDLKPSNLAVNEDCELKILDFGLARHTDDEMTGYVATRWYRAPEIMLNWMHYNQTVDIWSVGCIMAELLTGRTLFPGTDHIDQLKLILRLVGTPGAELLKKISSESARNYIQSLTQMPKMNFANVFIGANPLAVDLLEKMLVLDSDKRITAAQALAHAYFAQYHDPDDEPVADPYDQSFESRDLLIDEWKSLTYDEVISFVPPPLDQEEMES
Procedure: as §1, §2
[…] (100 µM) was used as the substrate for p38.

[8] = test system: A549 cells; assay: Cell viability assay (alamarBlue reduction), daunorubicin combination; type: cell-based, human; details: for Cytotoxicity on A549 cells when used alone: 8 μM; for Enhancement of daunorubicin-mediated A549-cell killing: 8 μM compound with 440 nM daunorubicin
Text: To test this hypothesis, we measured the ability of hydroxy-PP-Me and PP-L to block CBR1-mediated metabolism of daunorubicin in A549 cells using cell killing as a measure of the cellular status of daunorubicin metabolism. […] Hydroxy-PP-Me induced a 25% enhancement of daunorubicin-mediated A549-cell killing consistent with its ability to inhibit CBR1-mediated daunorubicin metabolism. […] Although the observed 25% enhancement of daunorubicin-mediated cell killing is modest, the hydroxy-PP-Me dose dependence (Figure 5B) of this effect is further evidence that it is CBR1 mediated rather than a general toxic response.
A549 cells were purchased from ATCC and cultured in the F-12K medium with 10% of FBS. Cells were maintained at 37 °C in an atmosphere of 5% CO2. Adherant cells were released for passaging using an isotonic Trypsin solution (0.25% Trypsin, 0.02% Versene). Rabbit anti-human CBR1 antibody was obtained from Dr. Tsuchida. The CBR expression vector, pET-11aCR, was obtained from Dr. Wermuth.
(§3) Cell viability was determined by the alamarBlue reagent reduction assay in a 96-well culture plate, measuring the absorbance at 570 and 600 nm spectrophotometrically. The amount of PI-stained cells was estimated by measuring fluorescence following incubation with PI (5 μg/ml). For both experiments, data are shown as the percentages of nontreated control cells.

[9] = test system: A549 cells; assay: PI-stained cell assay, serum-withdrawal-induced apoptosis; type: cell-based, human; details: for Protection against serum-withdrawal-induced apoptosis (PI staining): 65 h following serum withdrawal; for Enhancement of induction of apoptosis by cell stresses: A549, interferon-γ + Fas ligand, H2O2, interleukin-1β, serum withdrawal, interleukin-1β + serum withdrawal, data not shown
Text: We chose to focus on signals that induce apoptosis in A549 adenocarcinoma cells because this endpoint is important for many cell-fate decisions, including those relevant to cancer and inflammation. CBR1 has been directly implicated in redox reactions leading to H2O2 generation, a known stimulus for apoptosis. A549 cells were subjected to a wide range of cell stresses previously shown to induce apoptosis: (1) interferon-γ + Fas ligand, (2) H2O2, (3) interleukin-1β, (4) serum withdrawal, or (5) interleukin-1β + serum withdrawal.
as §3

[10] = IC50 against CBR1, 200 μM NADPH, 200 μM menadione, pH 6.8, 25 °C
[11] = Table S3, LEEIYGEFKKK 100 µM substrate, 11 nM [γ-32P]ATP, read-out: IC50 (nM) Fyn
[12] = read-out: IC50 against Fyn (Figure 3)
[13] = 1 µM inhibitor, remaining kinase activity

SMILES	Cytometrix phenotype (PCA trajectory) ([1]; 24 h, five cell types)	IC50 [3, 10] [nM]	IC50 [5, 12]	activity at 1 µM [2, 13] [%]	Relative activity @ 1 µM inhibitor PKA [6] [%]	IC50 [7] [nM]	Protection against serum-withdrawal-induced apoptosis (PI staining) ([9]; A549 cells)	further results
COC(=O)[C@@]1(O)C[C@H]2O[C@]1(C)n1c3ccccc3c3c4c(c5c6ccccc6n2c5c31)C(=O)NC4 [K252a, reference compound]	dose-dependent morphological changes in A549, DU145, HUVEC, and SF268 cells but not SKOV3 cells							
CC(C)(C)n1nc(-c2ccc(Cl)cc2)c2c(N)ncnc21 [PP2, 1-tert-butyl-3-(4-chlorophenyl)-1H-pyrazolo[3,4-d]pyrimidin-4-amine, reference compound]								EC50 ([1]; 24 h): ~129000 nM; activity at 1 µM [2]: 103%
CC(C)(C)n1nc(-c2ccccc2)c2c(N)ncnc21 [PP, 1-tert-butyl-3-phenyl-1H-pyrazolo[3,4-d]pyrimidin-4-amine, reference compound]	phenotypic profile comparable to PP2	> 200000	50 nM	92	92	4000		Inhibition of CBR1 activity ([3]; up to solubility limit of 200 μM): no inhibition; solubility [4]: 200 µM (≈ 53.5 µg/mL); IC50 [5, 11]: 110 nM
CCOCCn1nc(-c2ccccc2)c2c(N)ncnc21 [PP-L]							does not	Potency in Cytometrix relative to parent compound (fold lower) [1]: approximately 5 fold; Cytotoxicity on A549 cells when used alone [8]: minimal cytotoxicity; Enhancement of daunorubicin-mediated A549-cell killing [8]: no enhancement of cell killing
COc1cccc2c1C(=O)c1c(O)c3c(c(O)c1C2=O)C[C@@](O)(C(C)=O)C[C@@H]3O[C@H]1C[C@H](N)[C@H](O)[C@H](C)O1 [daunorubicin, reference compound]								IC50 ([8]; Homo sapiens, A549, read-out: Approximate IC50 for cell killing as a single agent): ~440 nM
CC(C)(C)n1nc(-c2cccc(O)c2)c2c(N)ncnc21 [hydroxy-PP, 3-(1-tert-butyl-4-amino-1H-pyrazolo[3,4-d]pyrimidin-3-yl)phenol]	distinct from the phenotypes induced by kinase inhibitors and the microtubule depolymerization inhibitors	788	5 nM	91	110	17000	able to block A549-cell apoptosis	IC50 ([3]; IC50 against CBR1, re-screen of the screening collection, data not shown): < 1000 nM; EC50 ([1]; 24 h treatment, five cell types, concentration of Figure 1D, called approximately the EC50): ~400 nM; Enhancement of induction of apoptosis by cell stresses [9]: no enhancement
CCOCCn1nc(-c2cccc(O)c2)c2c(N)ncnc21 [hydroxy-PP-L]							protects A549 cells against serum-withdrawal-induced apoptosis, although to a lesser extent than hydroxy-PP-Me	Potency in Cytometrix relative to parent compound (fold lower) [1]: approximately 5 fold; Protection against serum-withdrawal-induced apoptosis (PI staining) ([9]; A549 cells, listed as Hydroxy-PP-L): dose-dependent decrease in PI staining
CNc1ncnc2c1c(-c1cccc(O)c1)cn2C(C)C [hydroxy-PP-Me, 3-(7-isopropyl-4-(methylamino)-7H-pyrrolo[2,3-d]pyrimidin-5yl)phenol]		759	70000 nM and > 70000 nM	95	106	> 50000	dose-dependent decrease in PI staining; also recorded: almost completely protected against apoptosis	IC50 [5, 11]: > 50000 nM; Cytotoxicity on A549 cells when used alone [8]: minimal cytotoxicity; Enhancement of daunorubicin-mediated A549-cell killing [8]: 25%; Cell viability with concomitant daunorubicin treatment ([8]; 1–8 μM compound plus daunorubicin): dose-dependent decrease in cell viability; Enhancement of induction of apoptosis by cell stresses [9]: no enhancement; Apoptosis induced by serum withdrawal blocked ([9]; A549 cells): more than 90%
CC(=O)O[C@H]1C(=O)[C@@]2(C)[C@H]([C@H](OC(=O)c3ccccc3)[C@]3(O)C[C@H](OC(=O)[C@H](O)[C@@H](NC(=O)c4ccccc4)c4ccccc4)C(C)=C1C3(C)C)[C@]1(OC(C)=O)CO[C@@H]1C[C@@H]2O [paclitaxel, reference compound]	pronounced and highly reproducible trajectory							
